Data on 33 compounds can be found in EPA's ToxValDB 9.5.

This data set has as its system Rattus norvegicus. As to conditions: oral.
Setting [1] is: short-term, duration: 28 days, gavage, F, Sprague-Dawley, Water Consumption: increase + Urinalysis: Volume increase, Osmolarity decrease, Bil increase + Hematology: RBC decrease300 Hgb decrease300 ….
The mark [2] stands for this setting: short-term, duration: 28 days, gavage, M, Sprague-Dawley, Water Consumption: increase + Urinalysis: Volume increase, Osmolarity decrease, Bil increase + Hematology: RBC decrease300 Hgb decrease300 ….
The mark [3] stands for this setting: subchronic, gavage, M, Sprague-Dawley, Clinical Observation: Salivation Clonic convulsion + Body Weight Changes: Body weight gain decrease + Food Consumption: decrease + Water ….
[4] abbreviates: short-term, duration: 28 days, gavage, M/F, CD(SD)ICS BR, Clinical Observation: Fur-staining Hypoactivity(one animal)Hunched posture(one animal)Weight loss(one animal)Pallor(one animal) + Urinalysis….
Setting [5] is: short-term, duration: 28 days, gavage, F, Sprague-Dawley, Blood Chemistry: Glu decrease, ChE increase, BUN increase + Absolute Organ Weight: Thyroid increase(trend) + Relative Organ Weight: Thyroid ….
[6] abbreviates: short-term, duration: 28 days, gavage, M, Sprague-Dawley, Blood Chemistry: Glu decrease, ChE increase, BUN increase + Absolute Organ Weight: Thyroid increase(trend) + Relative Organ Weight: Thyroid ….
The mark [7] stands for this setting: subchronic, gavage, M, Sprague-Dawley, Clinical Observation: Salivation + Water Consumption: increase + Urinalysis: Urinary volume increase + Thyroid Hormone: Thyroid hormones', '….
Where [8] appears, read: short-term, duration: 28 days, gavage, F, Sprague-Dawley, Clinical Observation: Soiled perigenital fur + Body Weight Changes: Gain decrease + Urinalysis: Pale yellow or yellow/slightly brownish + ….
[9] abbreviates: short-term, duration: 28 days, gavage, M, Sprague-Dawley, Clinical Observation: Soiled perigenital fur + Body Weight Changes: Gain decrease + Urinalysis: Pale yellow or yellow/slightly brownish + ….
Setting [10] is: short-term, duration: 28 days, gavage, M/F, Sprague-Dawley, Clinical Observation: Sedation Paleness + Functional Observational Battery: Forelimb grip strength decrease, Motor activity decrease, Motor ….
[11] abbreviates: short-term, duration: 28 days, gavage, M/F, Sprague-Dawley, Deaths + Clinical Observation: Tremor Locomotor activity decrease1000 Ptosis Prone position Lateral position Soiled peritoneal region ….

For the compound `NS(=O)(=O)c1cc(C(=O)O)c(NCc2ccco2)cc1Cl` [Furosemide], the NOEL (subchronic, duration: 13 weeks, diet, M/F, Fischer 344, Deaths + Clinical Observation: Diuresis Rough fur + Body Weight Changes: decrease + Food Consumption: decrease + Relative Organ Weight: …) was less than 60 mg/kg-day.
Regarding `Nc1ccccc1-c1ccccc1` [2-Biphenylamine], under setting [1], the LOEL was 30 mg/kg-day and the NOEL was less than 30 mg/kg-day. Under setting [2], the LOEL is 100 mg/kg-day and the NOEL was 30 mg/kg-day.
As for `CC(=O)OC1CCCCC1C(C)(C)C` (stereo unspecified) [2-tert-Butylcyclohexyl acetate], under setting [3], the NOAEL was less than 50 mg/kg-day and the NOEL is less than 50 mg/kg-day.
As to `C=CC(C)(O)CCCC(C)CCCC(C)CCCC(C)C` (stereo unspecified) [Isophytol], under setting [4], the NOAEL is 500 mg/kg-day and the NOEL is 250 mg/kg-day.
Consider `O=C(O)CCCN1CCC(O[C@@H](c2ccc(Cl)cc2)c2ccccn2)CC1.O=S(=O)(O)c1ccccc1` [Bepotastine besylate], for which the NOAEL (short-term, duration: 28 days, gavage, M/F, CD, Clinical Observation: Mydriasis Salivation Soiled perineal region + Body Weight Changes: decrease + Food Consumption: decrease + Urinalysis…) was found to be 100 mg/kg-day.
In the case of `C1C2CC3CC1CC(C2)C3` [Adamantane], under setting [5], the LOEL came out at 1000 mg/kg-day and the NOEL is 200 mg/kg-day. Further, under setting [6], the LOEL was found to be 40 mg/kg-day and the NOEL is less than 40 mg/kg-day.
For the compound `CN(c1nccc(=O)[nH]1)C1CCN(c2nc3ccccc3n2Cc2ccc(F)cc2)CC1` [Mizolastine], the NOAEL (chronic, duration: 182 days, gavage, M/F, Sprague-Dawley, Clinical Observation: Salivation + Urinalysis: Volume increase + Blood Chemistry: IP increase + Absolute Organ Weight: Liver increase, …) came to 5 mg/kg-day.
For the compound `O=C1CCc2ccccc2O1` [3,4-Dihydrocoumarin], the NOEL (subchronic, duration: 13 weeks, gavage, M/F, Fischer 344, Deaths + Body Weight Changes: decrease + Hematology: Plt decrease, Hct decrease, Hgb decrease, RBC decrease, WBC decrease, Lympho decrease…) was less than 75 mg/kg-day.
Consider `O=C(Cl)c1ccc(Cl)cc1` [4-Chlorobenzoyl chloride], for which, under setting [7], the LOEL came out at 500 mg/kg-day and the NOEL was 100 mg/kg-day.
In the case of `CCCCC(CC)(CO)CO` [2-Butyl-2-ethyl-1,3-propanediol], where the note is “subchronic, gavage, M, Sprague-Dawley, Clinical Observation: Staggering gait + Water Consumption: increase + Urinalysis: pH decrease + Hematology: LYMPH increase, NEUT decrease + …”, the NOAEL was 20 mg/kg-day.
Regarding `Nc1c(S(=O)(=O)O)cc(Br)c2c1C(=O)c1ccccc1C2=O`, where the note is “short-term, duration: 28 days, gavage, M/F, Deaths + Clinical Observation: Polyuria + Body Weight Changes: Body weight gain decrease + Water Consumption: increase + Urinalysis: Urine …”, the NOEL is 50 mg/kg-day.
With `[Cl][Sn][Cl]` [Stannous chloride], where the note is “subchronic, duration: 13 weeks, diet, M/F, Fischer 344, Body Weight Changes: decrease”, the NOEL was 365 mg/kg-day.
Consider `NC(=O)c1cccnc1` [Niacinamide], for which, under “short-term, duration: 28 days, gavage, M/F, Wistar, Body Weight Changes: decrease + Food Consumption: decrease + Blood Chemistry: AST increase, ALT increase, T-Cho increase, ALP increase, BUN …”, the NOAEL amounted to 215 mg/kg-day.
As for `CO[Si](OC)(OC)c1ccccc1` [Trimethoxyphenylsilane], the NOAEL (short-term, duration: 28 days, gavage, M, Han Wistar, Body Weight Changes: decrease + Food Consumption: decrease + Blood Chemistry: BUN increase, BA increase, T-Cho increase + Absolute Organ …) is less than 100 mg/kg-day.
Take `N#[N+]c1ccc2c(S(=O)(=O)[O-])cccc2c1[O-].[Na+]`: the NOEL (subchronic, gavage, M, Sprague-Dawley, Clinical Observation: Loose stool Mucous stool Soiled perineal region Brownish urine + Body Weight Changes: decrease(trend) + Food …) was less than 40 mg/kg-day.
Consider `CCC(C)(C)c1ccccc1` [tert-Pentylbenzene], for which, under setting [8], the LOEL turned out to be 1000 mg/kg-day and the NOEL is 300 mg/kg-day. Moreover, under setting [9], the LOEL turned out to be 100 mg/kg-day and the NOEL is less than 100 mg/kg-day.
Turning to `COc1cc(N)ccc1NC(=O)c1ccc(N)cc1` [4-Amino-N-(4-amino-2-methoxyphenyl)benzamide], the NOEL (short-term, duration: 28 days, gavage, M/F, Deaths + Clinical Observation: Locomotor activity increase, Tremor (temporary)Loss of righting reflex Motor ataxia Lethargy (severe) + Blood…) was determined as 10 mg/kg-day.
Turning to `CCCC(C)(COC(N)=O)COC(=O)NC(C)C` (stereo unspecified) [Carisoprodol], the NOEL runs as follows: (subchronic, gavage, M/F, Fischer 344, Deaths + Clinical Observation: Lethargy Ataxia + Absolute Organ Weight: Right kidney increase, Liver increase + Relative Organ Weight: Right…) less than 100 mg/kg-day; (subchronic, gavage, M/F, Fischer 344, Deaths + Clinical Observation: Lethargy Diarrhea Rough hair coat Prostration Urine stain in the vaginal area Ataxia + Body Weight Changes: …) less than 100 mg/kg-day.
With `NCc1ccc(Cl)nc1` [5-(Aminomethyl)-2-chloropyridine], the NOEL (short-term, duration: 28 days, gavage, M/F, Clinical Observation: Salivation Locomotor activity decrease, Respiration rate decrease, Ptosis Lacrimation + Body Weight Changes: Weight …) was found to be 8 mg/kg-day.
Consider `C=CC(F)(F)C(F)(F)C(F)(F)C(F)(F)C(F)(F)C(F)(F)C(F)(F)C(F)(F)F` [1H,1H,2H-Perfluoro-1-decene], for which the NOEL (short-term, duration: 28 days, gavage, M/F, Hematology: Trend of anemia + Blood Chemistry: GOT increase, GPT increase, T-CHO decrease + Absolute Organ Weight: Liver increase + …) is 8 mg/kg-day.
For the compound `C(COCC1CO1)OCC1CO1` (stereo unspecified) [Ethylene glycol diglycidyl ether], the NOEL (subchronic, duration: 42 days, gavage, M, CD(SD), Clinical Observation: Salivation + Body Weight Changes: decrease + Food Consumption: decrease + Blood Chemistry: TG decrease + …) stood at 12.5 mg/kg-day.
Regarding `CCOC(N)=O` [Urethane], under setting [10], the LOAEL came out at 100 mg/kg-day. The LOEL under setting [10] was determined as 100 mg/kg-day. For the same compound, under setting [10], the NOAEL was 20 mg/kg-day. Moreover, the NOEL reads like this: under setting [10], 20 mg/kg-day; (subchronic, drinking water, F, Fischer 344, Deaths + Body Weight Changes: decrease + Water Consumption: decrease + Hematology: WBC decrease, Lympho decrease + Blood Chemistry: BUN …) 10 mg/kg-day; (subchronic, drinking water, F, Fischer 344, Deaths + Clinical Observation: Thinness, abnormal posture, and ruffled fur + Body Weight Changes: decrease + Water Consumption: decrease + …) 11 mg/kg-day; (subchronic, drinking water, M/F, Fischer 344, Deaths + Body Weight Changes: decrease + Water Consumption: decrease + Hematology: WBC decrease, Lympho decrease + Blood Chemistry: BUN …) less than 16.7 mg/kg-day; (subchronic, drinking water, M/F, Fischer 344, Deaths + Clinical Observation: Thinness, abnormal posture, and ruffled fur + Body Weight Changes: decrease + Water Consumption: decrease + …) less than 16.7 mg/kg-day.
Regarding `COc1cc(S(=O)(=O)CCOS(=O)(=O)O)c(C)cc1N`, the NOEL (short-term, duration: 28 days, gavage, M, Absolute Organ Weight: Liver increase + Histopathology: Kidney-Eosinophilic droplet, tubular epithelium) is 30 mg/kg-day.
For the compound `CN(C)c1ccc(C(=C2C=CC(=[N+](C)C)C=C2)c2ccccc2)cc1.[Cl-]` [Malachite green], where the note is “subchronic, diet, M/F, Fischer 344, Body Weight Changes: decrease + Hematology: Hct decrease, RBC decrease, Hgb decrease + Blood Chemistry: Cho increase, gamma-GTP increase + …”, the NOEL was found to be 12 mg/kg-day.
Regarding `C=CS(=O)(=O)CCNC(=O)c1cccc(Nc2nc(F)nc(Nc3cc(S(=O)(=O)[O-])cc4cc(S(=O)(=O)[O-])c(N=Nc5ccc6c(S(=O)(=O)[O-])cccc6c5S(=O)(=O)[O-])c(O)c34)n2)c1.[Na+].[Na+].[Na+].[Na+]`, the NOEL (short-term, duration: 28 days, gavage, M/F, Urinalysis: Occult blood increase, Bil increase + Hematology: RET increase, WBC increase, LYMPH increase + Blood Chemistry: BUN increase, T-…) turned out to be 50 mg/kg-day.
Regarding `CC(C)N1C(=O)C=CC1=O` [1-(Propan-2-yl)-1H-pyrrole-2,5-dione], the NOEL (short-term, duration: 28 days, gavage, M/F, Clinical Observation: Salivation + Organ Weight: Liver increase, Kidney increase + Necropsy: Liver- Enlargement Kidney- Enlargement) came to 40 mg/kg-day.
With `CSCCC=O` [3-(Methylthio)propanal], the NOAEL (short-term, duration: 28 days, gavage, M/F, Wistar, Body Weight Changes: Mean body weight decrease, Weight gain decrease + Hematology: RBC decrease, HGB decrease + Blood Chemistry: T-Bil …) worked out at 104 mg/kg-day.
With `Cl.Cl.NCCNCCNCCN` [Trientine hydrochloride], the NOAEL (chronic, duration: 92 days, drinking water, F, Fischer 344, Histopathology: Uterus: Increased prevalence of dilatation) stood at 669 mg/kg-day.
As for `CC(C)(C)c1cc(C(=O)O)c(O)c(C(C)(C)C)c1` [Benzoic acid, 3,5-bis(1,1-dimethylethyl)-2-hydroxy-], the NOEL (subchronic, gavage, M, Sprague-Dawley, Blood Chemistry: ALT(GPT) increase, TG increase + Absolute Organ Weight: Liver increase + Relative Organ Weight: Liver increase) came out at 20 mg/kg-day.
In the case of `Cc1cc(O)ccc1Cl` [4-Chloro-3-methylphenol], under setting [11], the LOAEL came out at 250 mg/kg-day, the LOEL stood at 250 mg/kg-day, the NOAEL stood at 60 mg/kg-day and the NOEL was 60 mg/kg-day.
With `C=CCCCC=C(C)C` [1,6-Octadiene, 7-methyl-], the NOEL (short-term, duration: 28 days, gavage, M/F, Clinical Observation: Salivation + Blood Chemistry: TG increase) is 10 mg/kg-day.
Take `CC(C)(C)c1cc2nc(-c3ccc(N)cc3)nn2[nH]1`: for the setting “short-term, duration: 28 days, gavage, M/F, Deaths + Clinical Observation: Locomotor activity decrease, Piloerection + Body Weight Changes: Gain decrease + Hematology: RBC decrease, …”, the NOEL is 2 mg/kg-day.
Regarding `O=[N+]([O-])c1ccc(Cl)c(Cl)c1` [3,4-Dichloronitrobenzene], the NOEL (subchronic, gavage, M, Sprague-Dawley, Hematology: RBC decrease, Hct decrease, MCV increase, MCH increase, Hgb decrease, MCHC decrease, Ret increase + Blood Chemistry: T-Bil: …) was less than 4 mg/kg-day.
